Source: PMC8048783, “CYP154C5 Regioselectivity in Steroid Hydroxylation Explored by Substrate Modifications and Protein Engineering” (Chembiochem, 2020)

Assays:
CYP154C5 [1] = target: T1, CYP154C5 (Nocardia farcinica, UniProt Q5YNS8); experiment: biochemical; format: binding
T1 construct: gene NFA_53110; full-length, N-terminal His-tag (pET28a(+), NdeI/HindIII), purified from E. coli C43(DE3)

CYP154C5 [2] = target: T2, CYP154C5 (Nocardia farcinica, UniProt Q5YNS8, F92A); experiment: type I spectral shift titration, tight-binding fit
T2 construct: gene NFA_53110; full-length, N-terminal His-tag (pET28a(+), NdeI/HindIII), purified from E. coli C43(DE3)
T2 sequence (Q5YNS8 whole entry F92A): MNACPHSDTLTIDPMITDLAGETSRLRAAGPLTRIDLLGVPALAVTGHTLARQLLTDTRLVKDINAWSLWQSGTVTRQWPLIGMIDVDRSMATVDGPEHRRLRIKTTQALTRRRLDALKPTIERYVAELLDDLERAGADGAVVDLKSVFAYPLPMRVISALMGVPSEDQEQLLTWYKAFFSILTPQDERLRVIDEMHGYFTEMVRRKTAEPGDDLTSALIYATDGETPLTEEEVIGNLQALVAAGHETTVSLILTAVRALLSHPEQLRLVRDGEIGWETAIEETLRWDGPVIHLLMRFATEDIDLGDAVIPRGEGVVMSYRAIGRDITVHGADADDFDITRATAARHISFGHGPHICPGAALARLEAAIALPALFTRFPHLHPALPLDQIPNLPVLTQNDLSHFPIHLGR
From the text: (§1) type I spectral shift titration, tight-binding fit on CYP154C5

CYP154C5 [3] = target: T3, CYP154C5 (Nocardia farcinica, UniProt Q5YNS8, Q398A); experiment: type I spectral shift titration, tight-binding fit
T3 construct: gene NFA_53110; full-length, N-terminal His-tag (pET28a(+), NdeI/HindIII), purified from E. coli C43(DE3)
T3 sequence (Q5YNS8 whole entry Q398A): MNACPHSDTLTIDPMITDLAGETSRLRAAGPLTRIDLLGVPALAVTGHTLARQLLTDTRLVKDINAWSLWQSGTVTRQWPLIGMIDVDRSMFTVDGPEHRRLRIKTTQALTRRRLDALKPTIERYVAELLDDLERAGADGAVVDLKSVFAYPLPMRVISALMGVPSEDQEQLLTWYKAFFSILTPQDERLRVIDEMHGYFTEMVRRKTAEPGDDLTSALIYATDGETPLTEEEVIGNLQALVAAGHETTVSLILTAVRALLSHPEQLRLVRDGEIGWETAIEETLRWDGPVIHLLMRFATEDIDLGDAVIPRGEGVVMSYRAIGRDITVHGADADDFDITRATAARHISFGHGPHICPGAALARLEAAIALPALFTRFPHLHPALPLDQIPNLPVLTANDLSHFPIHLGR
From the text: as §1

CYP154C5 [4] = target: T4, CYP154C5 (Nocardia farcinica, UniProt Q5YNS8, M84A); experiment: type I spectral shift titration, tight-binding fit
T4 construct: gene NFA_53110; full-length, N-terminal His-tag (pET28a(+), NdeI/HindIII), purified from E. coli C43(DE3)
T4 sequence (Q5YNS8 whole entry M84A): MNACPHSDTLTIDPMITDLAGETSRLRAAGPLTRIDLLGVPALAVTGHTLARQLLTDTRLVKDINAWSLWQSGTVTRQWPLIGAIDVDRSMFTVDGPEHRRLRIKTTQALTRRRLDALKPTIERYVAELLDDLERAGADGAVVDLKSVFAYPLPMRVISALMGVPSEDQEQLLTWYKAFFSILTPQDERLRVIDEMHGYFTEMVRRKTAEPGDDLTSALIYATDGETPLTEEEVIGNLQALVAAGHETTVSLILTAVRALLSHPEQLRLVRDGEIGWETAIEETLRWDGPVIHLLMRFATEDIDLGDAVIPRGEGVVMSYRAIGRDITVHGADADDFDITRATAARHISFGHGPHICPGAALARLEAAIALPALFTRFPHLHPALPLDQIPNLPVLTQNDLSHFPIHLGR
From the text: as §1

CYP154C5 [5] = target: T5, CYP154C5 (Nocardia farcinica, UniProt Q5YNS8, Q239A); experiment: type I spectral shift titration, tight-binding fit
T5 construct: gene NFA_53110; full-length, N-terminal His-tag (pET28a(+), NdeI/HindIII), purified from E. coli C43(DE3)
T5 sequence (Q5YNS8 whole entry Q239A): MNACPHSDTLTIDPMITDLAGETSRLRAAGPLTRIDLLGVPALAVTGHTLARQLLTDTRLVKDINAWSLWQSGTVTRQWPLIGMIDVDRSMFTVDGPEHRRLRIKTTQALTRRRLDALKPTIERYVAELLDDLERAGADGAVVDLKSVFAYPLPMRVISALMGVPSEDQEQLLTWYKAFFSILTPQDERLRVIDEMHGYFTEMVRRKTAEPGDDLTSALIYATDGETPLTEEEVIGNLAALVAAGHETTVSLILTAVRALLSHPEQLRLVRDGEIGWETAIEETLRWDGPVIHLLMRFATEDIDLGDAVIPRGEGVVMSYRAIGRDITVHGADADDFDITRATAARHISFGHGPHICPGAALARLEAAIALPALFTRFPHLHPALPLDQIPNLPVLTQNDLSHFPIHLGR
From the text: as §1

T1 sequence (Q5YNS8 entry or part of it): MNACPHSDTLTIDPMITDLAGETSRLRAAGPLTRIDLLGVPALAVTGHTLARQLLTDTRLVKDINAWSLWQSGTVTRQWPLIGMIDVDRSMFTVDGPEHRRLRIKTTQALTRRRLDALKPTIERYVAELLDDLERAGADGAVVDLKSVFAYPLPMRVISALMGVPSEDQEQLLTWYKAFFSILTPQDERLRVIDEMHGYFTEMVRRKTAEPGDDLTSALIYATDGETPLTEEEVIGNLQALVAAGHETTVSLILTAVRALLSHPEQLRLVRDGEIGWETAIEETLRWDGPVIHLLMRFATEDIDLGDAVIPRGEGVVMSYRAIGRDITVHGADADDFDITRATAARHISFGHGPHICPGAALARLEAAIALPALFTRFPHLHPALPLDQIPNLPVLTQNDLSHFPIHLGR

Compound: CC(=O)[C@H]1CC[C@H]2[C@@H]3CC=C4C[C@@H](O)CC[C@]4(C)[C@H]3CC[C@]12C [compound 1, pregnenolone]
- Kd (CYP154C5 [1]): 62 ± 14 nM

Compound: C[C@]12CC[C@H](O)CC1=CC[C@@H]1[C@@H]2CC[C@]2(C)C(=O)CC[C@@H]12 [compound 2, dehydroepiandrosterone]
- Kd (CYP154C5 [2]): 1020 ± 32 nM
- Kd (CYP154C5 [3]): 687 ± 43 nM
- Kd (CYP154C5 [1]): < 1 nM

Compound: CC(=O)[C@H]1CC[C@H]2[C@@H]3CCC4=CC(=O)CC[C@]4(C)[C@H]3CC[C@]12C [compound 3, progesterone]
- Kd (CYP154C5 [2]): 209 ± 12 nM
- Kd (CYP154C5 [3]): 34 ± 21 nM
- Kd (CYP154C5 [1]): 15 ± 10 nM

Compound: C[C@]12CCC(=O)C=C1CC[C@@H]1[C@@H]2CC[C@]2(C)C(=O)CC[C@@H]12 [compound 4, androstenedione]
- Kd (CYP154C5 [2]): 512 ± 17 nM
- Kd (CYP154C5 [4]): 3130 ± 234 nM
- Kd (CYP154C5 [1]): 12 ± 7 nM

Compound: C[C@]12CC[C@H]3[C@@H](CCC4=CC(=O)CC[C@@]43C)[C@@H]1CC[C@@H]2O [compound 5, testosterone]
- Kd (CYP154C5 [2]): 1480 ± 33 nM
- Kd (CYP154C5 [4]): 5710 ± 161 nM
- Kd (CYP154C5 [3]): 747 ± 45 nM
- Kd (CYP154C5 [1]): 18 ± 10 nM

Compound: C[C@]12CC[C@H]3[C@@H](CCC4=CC(=O)CC[C@@H]43)[C@@H]1CC[C@@H]2O [compound 6, nandrolone]
- Kd (CYP154C5 [5]): 13 ± 6 nM
- Kd (CYP154C5 [1]): 100 ± 17 nM

Compound: C[C@]12CCCCC1=CC[C@@H]1[C@@H]2CC[C@]2(C)C(=O)CC[C@@H]12 [compound 10, 3‐deoxydehydroepiandrosterone]
- Kd (CYP154C5 [1]): 94 ± 52 nM

Compound: C[C@@]12CCC[C@H]1[C@@H]1CC[C@H]3CC(=O)CC[C@]3(C)[C@H]1CC2 [compound 11, 5α‐androstan‐3‐one]
- Kd (CYP154C5 [1]): 20 ± 16 nM
